As usually defined, the Ki is a measure of affinity in units of concentration, obtained from inhibition or displacement. The IC50 is the concentration at which inhibition is half-maximal.

Data on 9 compounds can be found in patent publication US5430047A, “Neurotensin antagonists” (Warner-Lambert Company, priority 1994, dated 1995).

T1 sequence (O88319 whole entry): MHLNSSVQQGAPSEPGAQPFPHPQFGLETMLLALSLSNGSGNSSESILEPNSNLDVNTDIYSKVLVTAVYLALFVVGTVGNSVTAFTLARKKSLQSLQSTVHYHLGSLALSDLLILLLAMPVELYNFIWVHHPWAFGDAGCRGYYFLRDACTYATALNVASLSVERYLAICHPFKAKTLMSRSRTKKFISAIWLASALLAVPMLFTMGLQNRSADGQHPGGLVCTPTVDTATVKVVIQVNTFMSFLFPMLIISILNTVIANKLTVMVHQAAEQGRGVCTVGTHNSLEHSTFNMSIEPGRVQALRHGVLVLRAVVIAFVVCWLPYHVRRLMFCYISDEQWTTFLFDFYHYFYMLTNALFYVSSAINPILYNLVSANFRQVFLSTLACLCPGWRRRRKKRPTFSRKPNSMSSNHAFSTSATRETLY
T2 sequence (P30989 whole entry): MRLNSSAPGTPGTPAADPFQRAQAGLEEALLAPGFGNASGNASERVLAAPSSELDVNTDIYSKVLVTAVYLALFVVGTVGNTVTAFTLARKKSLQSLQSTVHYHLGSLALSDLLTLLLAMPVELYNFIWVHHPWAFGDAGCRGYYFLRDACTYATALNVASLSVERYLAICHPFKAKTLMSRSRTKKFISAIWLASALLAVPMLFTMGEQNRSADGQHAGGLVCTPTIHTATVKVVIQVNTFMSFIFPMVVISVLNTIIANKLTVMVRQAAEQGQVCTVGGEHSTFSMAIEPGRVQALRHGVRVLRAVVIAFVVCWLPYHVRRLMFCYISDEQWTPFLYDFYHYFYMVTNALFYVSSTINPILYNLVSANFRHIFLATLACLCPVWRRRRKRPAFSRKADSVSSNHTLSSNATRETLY

One experiment has as its target T1, neurotensin receptor (Mus musculus, UniProt O88319).
T1 construct: from tissue
Nature of the experiment: Inhibition of [3H] neurotensin binding in a receptor assay. The settings on record: [3H] neurotensin receptor binding. As for the experimental part: (§1) Thus, the compounds of Formula I were tested for their ability to inhibit [^3 H] neurotensin binding in a receptor assay described by Mazella J., et al., Journal of Biological Chemistry, 263:144-149 (1988) and Kitabgi P., et al., European Journal of Pharmacology, 140:285-293 (1987). Compounds were tested as neurotensin antagonists using the functional assay described by Bunzou J. C., et al., Biochem. J., 264:871-878 (1989) and Turner J., et al., J. Pharm. Exp. Ther., 253:1049-1056 (1990). Thus, compounds were tested for their ability to inhibit neurotensin-induced calcium mobilization in HT29 cells.
(§2) The above test methods are incorporated herein by reference. The data in the table show the neurotensin receptor binding activity and calcium mobilization activity, of representative compounds of Formula I.
Compound `O=C(CC(CC(=O)c1ccc(Cl)cc1)c1cccc(-c2nnn[nH]2)c1)c1ccc(Cl)cc1` [Example 18, 1,5-Bis-(4-chlorophenyl)-3-[3-(1H-tetrazol-5-yl)phenyl]-pentane-1,5-dione] came in with a Ki of 5.9 µM. On the same count and under the same terms, the result for `Cc1ccc(C(=O)CC(CC(=O)c2ccc(F)cc2)c2cccc(C(=O)O)c2)cc1` (stereo not drawn) [Example 15, 3-[1-[2-(4-Fluorophenyl)-2-oxoethyl]-3-oxo-3-p-tolylpropyl]-benzoic acid] reads 0.448 µM; that for `O=C(O)c1cccc(C(CCc2ccc(F)cc2)CC(=O)c2ccc(F)cc2)c1` (stereo not drawn) [Example 22, 3-[3-(4-Fluorophenyl)-1-[2-(4-fluorophenyl)ethyl]-3-oxopropyl]-benzoic acid], 3.24 µM; that for `O=C(O)c1cccc(C(CCc2ccc(Cl)cc2)CC(=O)c2ccccc2)c1` (stereo not drawn) [Example 19, 3-[1-[2-(4-Chlorophenyl)ethyl]-3-oxo-3-phenylpropyl]-benzoic acid], 17.7 µM.

The compound `O=C(O)c1cccc(C(CCc2ccccc2)CC(=O)c2ccc(Cl)cc2)c1` (stereo not drawn) [Example 23, 3-[3-(4-Chlorophenyl)-3-oxo-1-[2-phenylethyl]propyl]-benzoic acid] yielded a Ki of 10.4 µM. On the same count and under the same terms, to `O=C(O)c1cccc(C(CCc2ccc(Cl)cc2)CC(=O)c2ccc(Cl)cc2)c1` (stereo not drawn) [Example 20, 3-[3-(4-Chlorophenyl)-1-[2-(4-chlorophenyl)ethyl]-3-oxopropyl]-benzoic acid] belongs 6.74 µM; to `O=C(CC(CC(=O)c1ccc(F)cc1)c1cccc(-c2nnn[nH]2)c1)c1ccc(F)cc1` [Example 17, 1,5-Bis-(4-fluorophenyl)-3-[3-(1H-tetrazol-5-yl)-phenyl]-pentane-1,5-dione], 6.32 µM. On the same count and under the same terms, to `O=C(O)c1cccc(C(CCc2ccc(F)cc2)CC(=O)c2ccccc2)c1` (stereo not drawn) [Example 21, 3-[1-[2-(4-Fluorophenyl)ethyl]-3-oxo-3-phenylpropyl]-benzoic acid] belongs 29.5 µM.

The next experiment addresses T2, neurotensin receptor (Homo sapiens, UniProt P30989).
T2 construct: endogenous in cells; host or cells: HT29 cells
Nature of the experiment: Inhibition of neurotensin-induced calcium mobilization in HT29 cells. It counts as cell-based.
Details: not given
As to the method:
as §1, §2
Background: Calcium assays in cells follow changes in intracellular calcium, usually with a dye or a luminescent sensor.
As to `COc1cccc(OC)c1C(=O)CC(CC(=O)c1ccc(Cl)cc1)c1cccc(C(=O)O)c1` (stereo not drawn) [Example 7, 3-[1-[2-(4-Chlorophenyl)-2-oxoethyl]-3-(2,6-dimethoxyphenyl)-3-oxopropyl]-benzoic acid], the IC50 came out at 2.2 µM.
